Assay [1] addresses T1, Serine/threonine-protein kinase Nek2 (Homo sapiens) (UniProt P51955).
T1 sequence (whole entry): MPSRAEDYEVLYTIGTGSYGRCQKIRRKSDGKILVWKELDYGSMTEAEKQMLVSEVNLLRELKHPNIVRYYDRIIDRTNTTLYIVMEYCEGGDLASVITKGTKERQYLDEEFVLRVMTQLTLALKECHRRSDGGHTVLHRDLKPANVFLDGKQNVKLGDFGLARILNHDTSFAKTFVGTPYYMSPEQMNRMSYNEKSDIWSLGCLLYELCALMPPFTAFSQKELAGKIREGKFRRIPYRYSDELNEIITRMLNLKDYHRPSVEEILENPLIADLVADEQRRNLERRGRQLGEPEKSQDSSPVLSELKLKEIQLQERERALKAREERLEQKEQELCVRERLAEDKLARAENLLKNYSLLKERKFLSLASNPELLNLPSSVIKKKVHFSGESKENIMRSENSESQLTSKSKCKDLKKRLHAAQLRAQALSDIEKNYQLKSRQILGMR
In words: Inhibition of human full length NEK2 expressed in baculovirus assessed as substrate phosphorylation using fluorescence-labelled peptides as substrate at 0.1 uM after 90 mins by microfluidic peptide phosphorylation assay.

Assay [2] addresses T2, cGMP-dependent protein kinase 1 (Homo sapiens) (UniProt Q13976).
T2 sequence (whole entry): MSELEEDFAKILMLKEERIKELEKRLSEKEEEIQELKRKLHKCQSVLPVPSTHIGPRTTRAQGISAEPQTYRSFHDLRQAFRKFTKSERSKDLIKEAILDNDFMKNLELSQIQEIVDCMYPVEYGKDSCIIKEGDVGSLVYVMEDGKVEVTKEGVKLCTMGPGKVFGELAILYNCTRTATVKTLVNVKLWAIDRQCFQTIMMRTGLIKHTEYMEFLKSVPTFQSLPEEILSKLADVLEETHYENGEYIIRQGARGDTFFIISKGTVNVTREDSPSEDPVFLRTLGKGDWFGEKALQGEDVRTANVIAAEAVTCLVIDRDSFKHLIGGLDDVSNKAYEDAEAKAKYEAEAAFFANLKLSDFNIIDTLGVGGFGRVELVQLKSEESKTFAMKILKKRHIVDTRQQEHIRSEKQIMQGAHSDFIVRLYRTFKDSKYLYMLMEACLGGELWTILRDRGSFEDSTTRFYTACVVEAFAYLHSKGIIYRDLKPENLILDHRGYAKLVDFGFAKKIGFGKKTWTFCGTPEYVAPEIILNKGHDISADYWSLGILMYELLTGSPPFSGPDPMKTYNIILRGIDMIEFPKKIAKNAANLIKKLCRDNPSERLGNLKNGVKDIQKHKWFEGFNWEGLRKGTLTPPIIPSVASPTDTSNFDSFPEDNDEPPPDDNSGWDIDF
In words: Inhibition of human full length PKG-1beta expressed in baculovirus assessed as substrate phosphorylation using fluorescence-labelled peptides as substrate at 420 uM after 90 mins by microfluidic peptide phosphorylation assay.

For assay [3], the target named is Ribosomal protein S6 kinase alpha-4 (Homo sapiens) (UniProt O75676). In words: Inhibition of human full length MSK2 expressed in baculovirus assessed as substrate phosphorylation using fluorescence-labelled peptides as substrate at 95 uM after 90 mins by microfluidic peptide phosphorylation assay.
Sequence of Ribosomal protein S6 kinase alpha-4 (Homo sapiens) (O75676 whole entry, looked up, the tested form may be a part): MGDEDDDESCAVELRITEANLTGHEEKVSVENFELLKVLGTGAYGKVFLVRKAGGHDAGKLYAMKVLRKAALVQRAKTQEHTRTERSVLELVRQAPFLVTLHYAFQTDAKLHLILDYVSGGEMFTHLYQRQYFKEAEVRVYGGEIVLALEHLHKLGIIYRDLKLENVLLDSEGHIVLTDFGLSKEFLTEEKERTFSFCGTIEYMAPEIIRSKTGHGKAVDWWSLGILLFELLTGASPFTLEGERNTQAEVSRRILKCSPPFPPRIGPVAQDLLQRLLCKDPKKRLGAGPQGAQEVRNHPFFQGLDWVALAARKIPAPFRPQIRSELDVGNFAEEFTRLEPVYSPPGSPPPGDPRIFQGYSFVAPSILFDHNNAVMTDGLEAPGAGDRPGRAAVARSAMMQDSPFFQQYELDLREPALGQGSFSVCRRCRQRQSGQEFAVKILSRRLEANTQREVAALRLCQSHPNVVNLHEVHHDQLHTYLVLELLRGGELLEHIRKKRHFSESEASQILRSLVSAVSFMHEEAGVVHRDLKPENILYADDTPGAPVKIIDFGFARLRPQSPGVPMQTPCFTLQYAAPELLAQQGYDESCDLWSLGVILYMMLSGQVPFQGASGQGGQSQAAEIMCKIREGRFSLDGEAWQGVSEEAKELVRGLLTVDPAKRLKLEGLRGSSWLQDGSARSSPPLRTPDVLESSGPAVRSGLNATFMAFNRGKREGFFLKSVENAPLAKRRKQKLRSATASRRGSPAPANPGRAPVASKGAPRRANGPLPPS
Assay [4] has as its target Serine/threonine-protein kinase PAK 2 (Homo sapiens) (UniProt Q13177). In words: Inhibition of human truncated PAK2 expressed in Escherichia coli cell assessed as substrate phosphorylation using fluorescence-labelled peptides as substrate at 9 uM after 90 mins by microfluidic peptide phosphorylation assay.
The test system of assay [5] is Tyrosine-protein kinase ABL1 (Homo sapiens), P00519 [Q252H]. The assay is described as follows: Inhibition of human truncated ABL Q252H mutant expressed in baculovirus assessed as substrate phosphorylation using fluorescence-labelled peptides as substrate at 8 uM after 90 mins by microfluidic peptide phosphorylation assay.
Assay [6] addresses T3, Serine/threonine-protein kinase 3 (Homo sapiens) (UniProt Q13188).
T3 sequence (whole entry): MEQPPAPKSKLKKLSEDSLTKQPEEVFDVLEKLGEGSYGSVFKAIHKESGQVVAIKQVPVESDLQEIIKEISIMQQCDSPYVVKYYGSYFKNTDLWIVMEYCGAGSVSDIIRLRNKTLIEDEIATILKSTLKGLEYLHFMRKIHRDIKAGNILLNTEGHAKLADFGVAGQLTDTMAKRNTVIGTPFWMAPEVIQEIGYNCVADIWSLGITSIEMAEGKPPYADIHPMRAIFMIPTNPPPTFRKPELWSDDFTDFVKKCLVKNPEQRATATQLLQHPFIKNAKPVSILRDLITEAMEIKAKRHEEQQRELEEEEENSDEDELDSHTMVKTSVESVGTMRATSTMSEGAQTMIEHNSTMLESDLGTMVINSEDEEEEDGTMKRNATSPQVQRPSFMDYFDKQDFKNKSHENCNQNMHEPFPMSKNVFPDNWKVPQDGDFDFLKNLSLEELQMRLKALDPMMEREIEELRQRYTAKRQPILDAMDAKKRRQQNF
In words: Inhibition of human full length MST2 expressed in baculovirus assessed as substrate phosphorylation using fluorescence-labelled peptides as substrate at 1000 uM after 90 mins by microfluidic peptide phosphorylation assay.

Assay [7] concerns the target T4, Testis-specific serine/threonine-protein kinase 2 (Homo sapiens) (UniProt Q96PF2).
T4 sequence (whole entry): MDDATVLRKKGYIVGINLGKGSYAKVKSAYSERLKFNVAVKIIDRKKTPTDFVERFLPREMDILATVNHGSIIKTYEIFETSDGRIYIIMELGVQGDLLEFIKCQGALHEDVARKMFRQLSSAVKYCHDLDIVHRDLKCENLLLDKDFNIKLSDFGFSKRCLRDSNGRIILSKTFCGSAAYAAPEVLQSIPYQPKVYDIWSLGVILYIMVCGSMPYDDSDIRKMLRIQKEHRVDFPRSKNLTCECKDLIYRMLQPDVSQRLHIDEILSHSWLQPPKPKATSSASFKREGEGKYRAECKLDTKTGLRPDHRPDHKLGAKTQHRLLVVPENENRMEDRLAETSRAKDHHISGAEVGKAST
The assay is described as follows: Inhibition of human full length TSSK2 expressed in baculovirus assessed as substrate phosphorylation using fluorescence-labelled peptides as substrate at 1000 uM after 90 mins by microfluidic peptide phosphorylation assay.

Assay [8] has as its target MAP kinase-activated protein kinase 3 (Homo sapiens) (UniProt Q16644). In words: Inhibition of human full length MAPKAPK3 expressed in Escherichia coli cell assessed as substrate phosphorylation using fluorescence-labelled peptides as substrate at 2 uM after 90 mins by microfluidic peptide phosphorylation assay.
In assay [9] the target is Ribosomal protein S6 kinase alpha-4 (Homo sapiens) (UniProt O75676). In words: Inhibition of human full length MSK2 expressed in baculovirus assessed as substrate phosphorylation using fluorescence-labelled peptides as substrate at 2 uM after 90 mins by microfluidic peptide phosphorylation assay.
For assay [10], the target named is Fibroblast growth factor receptor 3 (Homo sapiens) (UniProt P22607). The assay is described as follows: Inhibition of human FGFR3 catalytic domain expressed in baculovirus assessed as substrate phosphorylation using fluorescence-labelled peptides as substrate at 70 uM after 90 mins by microfluidic peptide phosphorylation assay.
Sequence of Fibroblast growth factor receptor 3 (Homo sapiens) (P22607 23-806 limits assumed): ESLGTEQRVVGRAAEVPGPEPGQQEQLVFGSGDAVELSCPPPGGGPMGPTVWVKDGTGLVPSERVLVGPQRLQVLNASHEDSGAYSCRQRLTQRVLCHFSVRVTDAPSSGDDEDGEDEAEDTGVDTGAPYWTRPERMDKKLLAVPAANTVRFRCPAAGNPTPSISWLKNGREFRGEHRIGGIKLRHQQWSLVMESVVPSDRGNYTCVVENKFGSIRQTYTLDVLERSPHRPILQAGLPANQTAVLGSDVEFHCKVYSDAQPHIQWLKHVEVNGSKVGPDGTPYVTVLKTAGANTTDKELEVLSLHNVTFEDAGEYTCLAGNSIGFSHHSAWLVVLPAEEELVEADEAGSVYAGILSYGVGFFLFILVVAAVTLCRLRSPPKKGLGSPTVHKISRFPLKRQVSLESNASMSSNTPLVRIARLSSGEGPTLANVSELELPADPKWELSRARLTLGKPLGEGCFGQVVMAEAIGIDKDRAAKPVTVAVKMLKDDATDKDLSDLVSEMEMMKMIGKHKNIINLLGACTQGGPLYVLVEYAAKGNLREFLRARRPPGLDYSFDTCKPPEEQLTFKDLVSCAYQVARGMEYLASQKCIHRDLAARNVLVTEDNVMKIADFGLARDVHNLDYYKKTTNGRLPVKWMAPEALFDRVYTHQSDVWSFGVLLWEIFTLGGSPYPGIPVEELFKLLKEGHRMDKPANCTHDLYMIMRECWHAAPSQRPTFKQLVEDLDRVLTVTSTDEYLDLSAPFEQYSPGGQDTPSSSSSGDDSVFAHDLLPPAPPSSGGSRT

Sequence of Serine/threonine-protein kinase PAK 2 (Homo sapiens) (Q13177 whole entry, the tested form may be a part): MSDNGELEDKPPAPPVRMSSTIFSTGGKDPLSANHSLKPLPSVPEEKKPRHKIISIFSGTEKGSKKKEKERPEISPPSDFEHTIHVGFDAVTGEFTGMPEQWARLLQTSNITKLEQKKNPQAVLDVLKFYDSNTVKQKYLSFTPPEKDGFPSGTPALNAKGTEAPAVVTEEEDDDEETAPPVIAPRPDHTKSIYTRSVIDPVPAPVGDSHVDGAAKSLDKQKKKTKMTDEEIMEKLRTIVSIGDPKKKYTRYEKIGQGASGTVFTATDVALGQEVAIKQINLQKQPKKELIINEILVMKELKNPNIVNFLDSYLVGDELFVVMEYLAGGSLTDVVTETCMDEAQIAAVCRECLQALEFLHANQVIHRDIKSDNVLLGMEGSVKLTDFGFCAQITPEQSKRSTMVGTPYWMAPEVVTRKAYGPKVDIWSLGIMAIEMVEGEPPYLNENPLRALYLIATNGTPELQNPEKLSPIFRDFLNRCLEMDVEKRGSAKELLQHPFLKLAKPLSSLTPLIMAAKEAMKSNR
Sequence of MAP kinase-activated protein kinase 3 (Homo sapiens) (Q16644 whole entry, looked up): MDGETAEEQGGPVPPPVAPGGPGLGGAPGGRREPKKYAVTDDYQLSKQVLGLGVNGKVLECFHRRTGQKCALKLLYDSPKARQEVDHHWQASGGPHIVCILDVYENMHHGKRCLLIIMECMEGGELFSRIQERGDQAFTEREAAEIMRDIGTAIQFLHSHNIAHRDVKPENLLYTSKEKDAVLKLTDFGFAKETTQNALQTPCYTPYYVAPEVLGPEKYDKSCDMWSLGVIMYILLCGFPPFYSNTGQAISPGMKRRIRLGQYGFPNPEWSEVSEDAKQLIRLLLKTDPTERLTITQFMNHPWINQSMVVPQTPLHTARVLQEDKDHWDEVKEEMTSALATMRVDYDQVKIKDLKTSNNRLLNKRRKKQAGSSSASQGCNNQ

As a reminder, the inhibition is the percentage by which the read-out fell short of the control. `C[C@H](CN(C)C)Oc1nc(Nc2cc3cccc(Cl)c3cn2)cnc1C#N`: the inhibition in assay [1] came out at 2%.
With `c1nc(N2CCOCC2)c2nc[nH]c2n1`, in assay [2], the inhibition was found to be 95.5%.
As for `NCCc1ccc(-c2ncnc3[nH]cnc23)cc1`, the inhibition in [3] amounted to 54%.
For the molecule `NCC1CN(c2ncnc3[nH]c4cnccc4c23)CCO1` (stereo not given), in assay [4], the inhibition is 3%.
Consider `NCC1CCN(c2ncnc3[nH]ccc23)CC1`, for which the inhibition in [5] turned out to be 87.5%.
Turning to `c1cnc2[nH]ccc2c1`, the inhibition is 63% in assay [6] and 37% in assay [7].
In the case of `NC1CCN(c2ncnc3[nH]ccc23)CC1`, the results for the inhibition in assay [8] and in assay [9] were 45.5% and 15%, respectively.
In the case of `CNCc1ccc(-c2ncnc3[nH]cnc23)cc1`, the inhibition in [10] turned out to be 27.5%.
